Source: patent US11236052B2, “Aminobenzimidazole derivatives, treatments, and methods of inhibiting histone deacetylase” (TRANSLATIONAL DRUG DEVELOPMENT, LLC, priority 2017, dated 2022)
Read-outs that look alike come from different tables or passages of the source. Each block holds one molecule with its values, some of them ahead of it.

Experiments:
MCF7 = test: CellTiter-Glo cell viability assay, MCF7; assay type: cell-based; details: Breast; for IC50: Homo sapiens, MCF7, 72 hours
Method: (§1) Cell Viability Assay—Cell viability was measured by the CellTiter-Glo® cell viability assay Promega (Madison, Wis.). The CellTiter-Glo® Luminescent Cell Viability Assay is a homogeneous method to determine the number of viable cells in culture based on quantitation of the ATP present, which signals the presence of metabolically active cells. Following treatment, CellTiter-Glo® is added to treatment wells and incubated at 37° C. luminescence values were measured at using a Molecular Devices Spectramax microplate reader.
(§2) Single Agent Studies—Cells were grown to 70% confluency, trypsinized, counted, and seeded in 96 well flat-bottom plates at a final concentration of 2.5×10^3-5×10^3 cells/well (Day 0). Cells were allowed to incubate in growth media for 24 hours. Treatment with the test agents began on Day 1 and continued for 72 hours. At the 72-hour time point, treatment-containing media was removed. Viable cell numbers are quantified by the CellTiter-Glo® cell viability assay as described above. Experiments were run with triplicate concentrations to determine growth inhibitory activity. Results from these studies were used to calculate an IC50 value (concentration of drug that inhibits cell growth by 50 percent of control) for each compound.
(§3) Data Collection—For single agent and combination studies, data from each experiment was collected and expressed as % Cell Growth using the following calculation: % Cell Growth=(ftest/fvehicle)×100
(§4) Where ftest is the luminescence of the tested sample, and fvehicle is the luminescence of the vehicle in which the drug is dissolved. Dose response graphs and IC50 values were generated using Prism 6 software (GraphPad).

AN3CA = test: CellTiter-Glo cell viability assay, AN3CA; assay type: cell-based; details: Uterine; for IC50: Homo sapiens, AN3-CA, 72 hours
Method: as §1, §2, §3, §4

SKUT-1B = test: CellTiter-Glo cell viability assay, SKUT-1B; assay type: cell-based; details: Uterine; for IC50: Homo sapiens, Skut1B, 72 hours
Method: as §1, §2, §3, §4

U266 = test: CellTiter-Glo cell viability assay, U266; assay type: cell-based; details: Myeloma; for IC50: Homo sapiens, U-266, U266, 72 hours
Method: as §1, §2, §3, §4

SUDHL-4 = test: CellTiter-Glo cell viability assay, SUDHL-4; assay type: cell-based; details: Lymphoma; for IC50: Homo sapiens, SU-DHL-4, SUDHL-4, 72 hours
Method: as §1, §2, §3, §4

Raji = test: CellTiter-Glo cell viability assay, Raji; assay type: cell-based; details: Lymphoma; for IC50: Homo sapiens, 72 hours
Method: as §1, §2, §3, §4

Mino = test: CellTiter-Glo cell viability assay, Mino; assay type: cell-based; details: Lymphoma; for IC50: Homo sapiens, 72 hours
Method: as §1, §2, §3, §4

A549 = test: CellTiter-Glo cell viability assay, A549; assay type: cell-based; details: NSCLC; for IC50: Homo sapiens, A549, 72 hours
Method: as §1, §2, §3, §4

H1650 = test: CellTiter-Glo cell viability assay, H1650; assay type: cell-based; details: NSCLC; for IC50: Homo sapiens, NCI-H1650, H1650, 72 hours
Method: as §1, §2, §3, §4

HDAC1 = HDAC1 (Homo sapiens (Human), UniProt Q13547); test: In vitro HDAC enzyme inhibition, mobility shift; assay type: biochemical; details: purified enzyme
HDAC1, sequence (Q13547 whole entry): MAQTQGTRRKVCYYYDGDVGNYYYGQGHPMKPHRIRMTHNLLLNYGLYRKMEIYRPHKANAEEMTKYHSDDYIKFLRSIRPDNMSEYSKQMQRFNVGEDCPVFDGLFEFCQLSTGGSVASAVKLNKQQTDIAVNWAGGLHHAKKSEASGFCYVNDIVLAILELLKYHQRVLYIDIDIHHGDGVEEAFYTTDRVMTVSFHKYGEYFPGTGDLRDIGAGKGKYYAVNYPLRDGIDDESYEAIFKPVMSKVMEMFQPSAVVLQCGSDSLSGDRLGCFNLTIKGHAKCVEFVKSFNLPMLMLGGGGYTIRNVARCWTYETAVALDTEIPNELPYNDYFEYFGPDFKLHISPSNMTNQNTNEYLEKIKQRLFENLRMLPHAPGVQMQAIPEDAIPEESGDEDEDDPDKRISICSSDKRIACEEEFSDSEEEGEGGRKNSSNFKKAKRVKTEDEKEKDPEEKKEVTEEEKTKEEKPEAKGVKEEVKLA
Method: (§5) Purified histone deacetylase enzymes 1, 3, 6, 10 were incubated with fluorescently labeled substrate and test compounds in a standardized reaction mixture in 384 well plates. Upon termination of the reaction, samples were introduced onto microfluidic chips. Samples migrate through channels in the chips and product and substrate are separated based on the difference in their charge and mass (electrophoretic mobility shift). Enzyme activity is measured by direct comparison of the fluorescence in the product and substrate peaks and the results presented in Table 4.

HDAC10 = HDAC10 (Homo sapiens (Human), UniProt Q969S8); test: In vitro HDAC enzyme inhibition, mobility shift; assay type: biochemical; details: purified enzyme
HDAC10, sequence (Q969S8 whole entry): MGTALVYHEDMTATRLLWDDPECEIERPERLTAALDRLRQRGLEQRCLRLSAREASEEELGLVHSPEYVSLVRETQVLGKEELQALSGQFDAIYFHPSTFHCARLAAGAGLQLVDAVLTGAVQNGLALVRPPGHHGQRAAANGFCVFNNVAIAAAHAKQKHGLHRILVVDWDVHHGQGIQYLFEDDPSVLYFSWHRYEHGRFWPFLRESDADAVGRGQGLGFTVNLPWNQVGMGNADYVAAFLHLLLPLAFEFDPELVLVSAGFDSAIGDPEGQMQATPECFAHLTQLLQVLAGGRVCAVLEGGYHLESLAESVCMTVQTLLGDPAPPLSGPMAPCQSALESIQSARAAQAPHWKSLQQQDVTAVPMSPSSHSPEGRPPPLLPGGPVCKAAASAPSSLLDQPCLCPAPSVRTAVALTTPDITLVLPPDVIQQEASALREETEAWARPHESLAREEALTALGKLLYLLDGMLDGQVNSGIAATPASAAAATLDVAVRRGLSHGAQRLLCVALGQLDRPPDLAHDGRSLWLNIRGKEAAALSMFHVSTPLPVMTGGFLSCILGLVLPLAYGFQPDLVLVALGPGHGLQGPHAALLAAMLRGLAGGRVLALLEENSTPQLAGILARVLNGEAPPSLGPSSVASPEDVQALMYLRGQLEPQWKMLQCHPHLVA
Method: as §5

HDAC3 = HDAC3 (Homo sapiens (Human), UniProt O15379); test: In vitro HDAC enzyme inhibition, mobility shift; assay type: biochemical; details: purified enzyme
HDAC3, sequence (O15379 whole entry): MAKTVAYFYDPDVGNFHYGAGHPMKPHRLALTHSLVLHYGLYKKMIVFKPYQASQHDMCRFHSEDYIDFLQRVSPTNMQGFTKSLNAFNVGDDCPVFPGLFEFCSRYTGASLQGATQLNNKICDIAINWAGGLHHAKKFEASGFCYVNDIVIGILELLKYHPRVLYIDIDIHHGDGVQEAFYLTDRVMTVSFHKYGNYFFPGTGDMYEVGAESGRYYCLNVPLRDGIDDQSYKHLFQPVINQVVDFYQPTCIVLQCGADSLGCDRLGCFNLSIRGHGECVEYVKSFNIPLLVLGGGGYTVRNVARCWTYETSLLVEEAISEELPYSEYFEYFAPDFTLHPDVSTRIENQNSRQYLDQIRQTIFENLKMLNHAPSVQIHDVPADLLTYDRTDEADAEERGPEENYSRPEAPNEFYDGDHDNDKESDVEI
HDAC3, sequence (Q9Y618 395-489 partner): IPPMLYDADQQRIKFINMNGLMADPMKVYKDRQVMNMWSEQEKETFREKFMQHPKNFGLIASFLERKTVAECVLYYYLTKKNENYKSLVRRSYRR
Method: as §5

HDAC6 = HDAC6 (Homo sapiens (Human), UniProt Q9UBN7); test: In vitro HDAC enzyme inhibition, mobility shift; assay type: biochemical; details: purified enzyme
HDAC6, sequence (Q9UBN7 whole entry): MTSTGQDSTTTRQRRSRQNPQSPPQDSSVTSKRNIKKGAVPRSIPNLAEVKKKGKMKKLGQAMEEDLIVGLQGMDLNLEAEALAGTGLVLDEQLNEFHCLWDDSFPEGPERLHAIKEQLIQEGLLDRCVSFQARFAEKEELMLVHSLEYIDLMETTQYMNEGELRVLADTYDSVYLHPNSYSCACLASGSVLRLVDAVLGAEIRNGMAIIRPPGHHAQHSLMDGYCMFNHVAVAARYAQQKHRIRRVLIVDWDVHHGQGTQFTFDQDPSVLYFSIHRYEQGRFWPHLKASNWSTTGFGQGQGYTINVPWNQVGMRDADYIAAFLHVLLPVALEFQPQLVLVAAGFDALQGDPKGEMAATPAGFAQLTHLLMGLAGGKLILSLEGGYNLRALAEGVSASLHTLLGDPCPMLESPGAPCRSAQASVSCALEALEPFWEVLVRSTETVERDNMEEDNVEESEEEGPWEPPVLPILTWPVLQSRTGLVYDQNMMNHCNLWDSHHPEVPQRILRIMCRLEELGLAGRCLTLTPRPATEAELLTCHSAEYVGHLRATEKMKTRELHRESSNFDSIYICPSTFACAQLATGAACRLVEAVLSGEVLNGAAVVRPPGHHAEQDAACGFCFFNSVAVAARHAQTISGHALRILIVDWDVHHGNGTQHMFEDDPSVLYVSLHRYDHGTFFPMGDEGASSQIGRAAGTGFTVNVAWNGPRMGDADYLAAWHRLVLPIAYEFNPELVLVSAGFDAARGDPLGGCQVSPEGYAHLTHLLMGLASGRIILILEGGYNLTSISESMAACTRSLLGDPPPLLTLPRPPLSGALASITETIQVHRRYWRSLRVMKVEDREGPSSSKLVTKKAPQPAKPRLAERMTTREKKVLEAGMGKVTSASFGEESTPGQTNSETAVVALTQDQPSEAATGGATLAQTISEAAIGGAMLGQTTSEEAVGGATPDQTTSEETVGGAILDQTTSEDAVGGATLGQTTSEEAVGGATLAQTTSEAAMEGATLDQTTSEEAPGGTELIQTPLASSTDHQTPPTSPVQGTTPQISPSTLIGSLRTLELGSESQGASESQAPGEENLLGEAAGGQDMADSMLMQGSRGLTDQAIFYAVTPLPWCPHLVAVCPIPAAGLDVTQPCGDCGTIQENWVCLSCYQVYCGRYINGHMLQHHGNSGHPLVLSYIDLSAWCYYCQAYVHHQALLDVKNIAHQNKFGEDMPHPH
Method: as §5

[1] = Pharmacokinetic studies in the mouse; assay type: in vivo; details: for Vd: read-out: Vss; for Vd/F: read-out: Vz/F obs
Method: Plasma samples were collected from healthy mice and analyzed for levels of compound ID #1, ID #2, and ID #3 and reported in Table 5. In brief, compounds were individually and accurately weighed out to produce a stock solution in Dimethyl-sulfoxide (DMSO) at a concentration of 2 mg/mL and stored at −20° C. From the stock solution, a working stock was prepared by diluting it in Methanol-Water 50:50 (v/v) at 20 μg/mL for calibration curve preparation and stored at 4° C. Standards used for quantitation and quality control samples (QC's) were prepared on the same day of sample processing using blank plasma obtained from non-treated mice. For each analyte, standards were prepared through serial dilution of the working stock at concentrations of 0.1, 0.5, 1.0, 10, 50, 100, 500 and 1000 ng/mL; QC's were prepared at intermediate concentrations of 0.75, 7.5, 75 and 750 ng/mL. Plasma samples were stored at −80° C. until ready for analysis and then placed on ice for thawing. An aliquot of 20 μL for samples, standards and QC's, were transferred into a 96-well extraction plate according to a pre-defined layout. Appropriate volume of Methanol-Formic Acid 99.9-0.1 containing internal standard (Verapamil at 25 ng/mL) was added to each well and samples were extracted under vacuum. Eluent was then transferred into a LCMS plate for analysis using a suitable column for separation and MRM detection. Concentration of analytes was calculated based on the calibration curve and analyzed for pharmacokinetic parameters by using Non-compartmental analysis (NCA) using WinNonlin Phoenix software. Parameters such as Cmax, Tmax, half-life, AUC(0-last), AUC(0-∞), volume of distribution (Vss) and clearance (Cl/F) were reported.
The analogs were tested for pharmacokinetic analysis in the mouse with doses of 1 mg/kg for intravenous (IV) route and 5 mg/kg for oral (P0) route. […] Overall exposure following IV dose also favored compound ID #1 with AUCO-∞ 1488.1 hr*ng/mL whereas compound ID #2 and ID #3 were 329.1 and 1193.7 hr*ng/mL, respectively.

[2] = plasma, 1.0 mg/kg IV, read-out: Half-life (converted)
[3] = plasma, 5.0 mg/kg PO, read-out: Half-life (converted)
[4] = plasma, iv, 1 mg/kg, 1.0 mg/kg IV, read-out: AUC0-∞
[5] = plasma, iv, 1 mg/kg, 1.0 mg/kg IV, read-out: Cmax
[6] = plasma, po, 5 mg/kg, 5.0 mg/kg PO, read-out: AUC0-∞
[7] = plasma, po, 5 mg/kg, 5.0 mg/kg PO, read-out: Cmax
[8] = plasma, po, 5 mg/kg, 5 mg/kg oral, read-out: AUC0-∞ (overall exposure following oral doses)

- IC50 (MCF7): 3550 nM
- IC50 (SKUT-1B): 6920 nM
- IC50 (U266): 4100 nM
- IC50 (SUDHL-4): 4170 nM
- IC50 (Raji): 4830 nM
- IC50 (A549): 10000 nM
- IC50 (H1650): 18200 nM
- IC50 (HDAC1): 0.445 µM
- IC50 (HDAC10): 3.12 µM
- IC50 (HDAC3): 0.079 µM
- IC50 (HDAC6): 0.0145 µM
- AUC0-∞ ([1]; 1.0 mg/kg IV): 1193.68 ng·h/mL
- AUC % Extrap ([1]; 1.0 mg/kg IV): 0.16%
- Cl/F obs ([1]; 1.0 mg/kg IV): 14 mL/min/kg
- Rsq (>0.85) ([1]; 1.0 mg/kg IV): 0.92
- half-life ([1]; 1.0 mg/kg IV): 2.37 h
- AUC % Extrap ([1]; 5.0 mg/kg PO): 0.38%
- Cmax ([1]; 5.0 mg/kg PO): 348.57 ng/mL
- Rsq (>0.85) ([1]; 5.0 mg/kg PO): 1.00
- AUC(0-t) ([1]; plasma, 1.0 mg/kg IV): 1190 ng·h/mL
- Tmax ([1]; plasma, 1.0 mg/kg IV): 0.08 h
- half-life [1, 2]: 2.37 h
- Vd ([1]; plasma, 1.0 mg/kg IV): 1.96 L/kg
- AUC(0-t) ([1]; plasma, 5.0 mg/kg PO): 1640 ng·h/mL
- CL/F ([1]; plasma, 5.0 mg/kg PO): 50.5 mL/min/kg
- Tmax ([1]; plasma, 5.0 mg/kg PO): 0.25 h
- bioavailability ([1]; plasma, 5.0 mg/kg PO): 27.6%
- half-life [1, 3]: 2.99 h
- Vd/F ([1]; plasma, 5.0 mg/kg PO): 13.1 L/kg
- AUC(0-inf) [1, 4]: 1190 ng·h/mL
- Cmax [1, 5]: 830 ng/mL
- AUC(0-inf) [1, 6]: 1650 ng·h/mL
- Cmax [1, 7]: 349 ng/mL
- AUC(0-inf) [1, 8]: 1650 ng·h/mL
Structure (SMILES): O=C(NO)c1ccc(Nc2nc3ccccc3n2C2CCCCCC2)cc1 [ID #3, 4-((1-cycloheptyl-1H-benzo[d]imidazol-2-yl)amino)-N-hydroxybenzamide]
- IC50 (AN3CA): 4570 nM
- IC50 (Mino): 4170 nM

- IC50 (MCF7): 1960 nM
- IC50 (SKUT-1B): 2510 nM
- IC50 (U266): 1170 nM
- IC50 (SUDHL-4): 240 nM
- IC50 (Raji): 1830 nM
- IC50 (A549): 2290 nM
- IC50 (H1650): 6610 nM
- IC50 (HDAC1): 0.13 µM
- IC50 (HDAC10): 0.137 µM
- IC50 (HDAC3): 0.019 µM
- IC50 (HDAC6): 0.0064 µM
- AUC0-∞ ([1]; 1.0 mg/kg IV): 1488.05 ng·h/mL
- AUC % Extrap ([1]; 1.0 mg/kg IV): 0.25%
- Cl/F obs ([1]; 1.0 mg/kg IV): 11.5 mL/min/kg
- Rsq (>0.85) ([1]; 1.0 mg/kg IV): 0.97
- half-life ([1]; 1.0 mg/kg IV): 3.70 h
- AUC % Extrap ([1]; 5.0 mg/kg PO): 0.75%
- Cmax ([1]; 5.0 mg/kg PO): 757.43 ng/mL
- Rsq (>0.85) ([1]; 5.0 mg/kg PO): 0.99
- AUC(0-t) ([1]; plasma, 1.0 mg/kg IV): 1440 ng·h/mL
- Tmax ([1]; plasma, 1.0 mg/kg IV): 0.08 h
- half-life [1, 2]: 3.7 h
- Vd ([1]; plasma, 1.0 mg/kg IV): 1.21 L/kg
- AUC(0-t) ([1]; plasma, 5.0 mg/kg PO): 3220 ng·h/mL
- CL/F ([1]; plasma, 5.0 mg/kg PO): 21 mL/min/kg
- Tmax ([1]; plasma, 5.0 mg/kg PO): 0.5 h
- bioavailability ([1]; plasma, 5.0 mg/kg PO): 53.4%
- half-life [1, 3]: 3.39 h
- Vd/F ([1]; plasma, 5.0 mg/kg PO): 6.16 L/kg
- AUC(0-inf) [1, 4]: 1490 ng·h/mL
- Cmax [1, 5]: 1290 ng/mL
- AUC(0-inf) [1, 6]: 3970 ng·h/mL
- Cmax [1, 7]: 757 ng/mL
- AUC(0-inf) [1, 8]: 3970 ng·h/mL
Structure (SMILES): O=C(NO)c1ccc(Nc2nc3ccccc3n2CC2CCCCC2)cc1 [ID #1, 4-((1-(cyclohexylmethyl)-1H-benzo[d]imidazol-2-yl)amino)-N-hydroxybenzamide]
- Improvement ID #1 over ID #3 Percent (MCF7; MCF7): 44.79%
- Improvement ID #1 over ID #3 fold (MCF7; MCF7): 1.81 fold
- IC50 (AN3CA): 1600 nM
- Improvement ID #1 over ID #3 Percent (AN3CA): 64.99%
- Improvement ID #1 over ID #3 fold (AN3CA): 2.86 fold
- Improvement ID #1 over ID #3 Percent (SKUT-1B): 63.73%
- Improvement ID #1 over ID #3 fold (SKUT-1B): 2.76 fold
- Improvement ID #1 over ID #3 Percent (U266; U266): 71.46%
- Improvement ID #1 over ID #3 fold (U266; U266): 3.50 fold
- Improvement ID #1 over ID #3 Percent (SUDHL-4; SUDHL-4): 94.24%
- Improvement ID #1 over ID #3 fold (SUDHL-4; SUDHL-4): 17.38 fold
- Improvement ID #1 over ID #3 Percent (Raji): 62.11%
- Improvement ID #1 over ID #3 fold (Raji): 2.64 fold
- IC50 (Mino): 1200 nM
- Improvement ID #1 over ID #3 Percent (Mino): 71.22%
- Improvement ID #1 over ID #3 fold (Mino): 3.48 fold
- Improvement ID #1 over ID #3 Percent (A549; A549): 77.10%
- Improvement ID #1 over ID #3 fold (A549; A549): 4.37 fold
- Improvement ID #1 over ID #3 Percent (H1650; H1650): 63.68%
- Improvement ID #1 over ID #3 fold (H1650; H1650): 2.75 fold
